In patent publication US20110086759A1, “CHEMICAL COMPOUNDS” (SYNGENTA CROP PROTECTION, INC., priority 2007, published 2011):

What was measured:
Assay type in all cases: in vivo
[1] = tested on: Echinochloa crus-galli (ECHCG); test: Post-emergence biological efficacy, glasshouse pot test; conditions: 312 h
Procedure, shortened: (§1)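 Pot-grown weeds were sprayed 8 days after sowing with test compound in acetone/water (50:50) with 0.5% Tween 20 at 1000 or 250 g/ha. Glasshouse at 24/16° C day/night, 14 h light, 65% humidity. Damage scored 0-100 (100 = total damage) after 13 days.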

Setaria faberi (SETFA) [2] = test: as above; conditions: 312 h
Procedure, shortened: as §1

[3] = tested on: Amaranthus retoflexus (AMARE); test: as above; conditions: Amaranthus retroflexus, 312 h
Procedure, shortened: as §1

Solanum nigrum (SOLNI) [4] = test: as above; conditions: 312 h
Procedure, shortened: as §1

[5] = tested on: Ipomea hederaceae (IPOHE); test: as above; conditions: Ipomoea hederacea, 312 h
Procedure, shortened: as §1

[6] = tested on: Alopecurus myosuroides (ALOMY); test: as above; conditions: 312 h
Procedure, shortened: as §1

[7] = tested on: Echinochloa crus-galli (ECHCG); test: Pre-emergence biological efficacy, glasshouse pot test; conditions: 312 h
Procedure, shortened: (§2)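 Visual phytotoxicity (0 no damage, 100 total damage) assessed 13 d after treatment. Soil-sown pots sprayed one day post-sowing; dose 1000 or 250 g/ha; formulation in acetone/water 50:50, 0.5% Tween 20.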

Setaria faberi (SETFA) [8] = test: as above; conditions: 312 h
Procedure, shortened: as §2

[9] = tested on: Amaranthus retoflexus (AMARE); test: as above; conditions: Amaranthus retroflexus, 312 h
Procedure, shortened: as §2

Solanum nigrum (SOLNI) [10] = test: as above; conditions: 312 h
Procedure, shortened: as §2

[11] = tested on: Ipomea hederaceae (IPOHE); test: as above; conditions: Ipomoea hederacea, 312 h
Procedure, shortened: as §2

[12] = tested on: Alopecurus myosuroides (ALOMY); test: as above; conditions: 312 h
Procedure, shortened: as §2

[13] = Rate 1,000 g/ha, post-emergence spray, evaluated after 13 days (100=total damage to plant; 0=no damage to plant), read-out: Percentage damage caused to weed species, post-emergence, ECHCG
[14] = Rate 1,000 g/ha, post-emergence spray, evaluated after 13 days (100=total damage to plant; 0=no damage to plant), read-out: Percentage damage caused to weed species, post-emergence, SETFA
[15] = Rate 1,000 g/ha, post-emergence spray, evaluated after 13 days (100=total damage to plant; 0=no damage to plant), read-out: Percentage damage caused to weed species, post-emergence, AMARE
[16] = Rate 1,000 g/ha, post-emergence spray, evaluated after 13 days (100=total damage to plant; 0=no damage to plant), read-out: Percentage damage caused to weed species, post-emergence, SOLNI
[17] = Rate 1,000 g/ha, post-emergence spray, evaluated after 13 days (100=total damage to plant; 0=no damage to plant), read-out: Percentage damage caused to weed species, post-emergence, IPOHE
[18] = Rate 1,000 g/ha, post-emergence spray, evaluated after 13 days (100=total damage to plant; 0=no damage to plant), read-out: Percentage damage caused to weed species, post-emergence, ALOMY
[19] = pre-emergence, rate 1,000 g/ha, evaluated after 13 days (100=total damage to plant; 0=no damage), read-out: Percentage damage caused to weed species, ECHCG
[20] = pre-emergence, rate 1,000 g/ha, evaluated after 13 days (100=total damage to plant; 0=no damage), read-out: Percentage damage caused to weed species, SETFA
[21] = pre-emergence, rate 1,000 g/ha, evaluated after 13 days (100=total damage to plant; 0=no damage), read-out: Percentage damage caused to weed species, AMARE
[22] = pre-emergence, rate 1,000 g/ha, evaluated after 13 days (100=total damage to plant; 0=no damage), read-out: Percentage damage caused to weed species, SOLNI
[23] = pre-emergence, rate 1,000 g/ha, evaluated after 13 days (100=total damage to plant; 0=no damage), read-out: Percentage damage caused to weed species, IPOHE
[24] = pre-emergence, rate 1,000 g/ha, evaluated after 13 days (100=total damage to plant; 0=no damage), read-out: Percentage damage caused to weed species, ALOMY
[25] = post-emergence, 1,000 g/ha, evaluated after 13 days (100=total damage; 0=no damage), read-out: Percentage damage caused to weed species, ECHCG
[26] = post-emergence, 1,000 g/ha, evaluated after 13 days (100=total damage; 0=no damage), read-out: Percentage damage caused to weed species, SETFA
[27] = post-emergence, 1,000 g/ha, evaluated after 13 days (100=total damage; 0=no damage), read-out: Percentage damage caused to weed species, AMARE
[28] = post-emergence, 1,000 g/ha, evaluated after 13 days (100=total damage; 0=no damage), read-out: Percentage damage caused to weed species, SOLNI
[29] = post-emergence, 1,000 g/ha, evaluated after 13 days (100=total damage; 0=no damage), read-out: Percentage damage caused to weed species, IPOHE
[30] = post-emergence, 1,000 g/ha, evaluated after 13 days (100=total damage; 0=no damage), read-out: Percentage damage caused to weed species, ALOMY
[31] = pre-emergence, 1,000 g/ha, evaluated after 13 days (100=total damage; 0=no damage), read-out: Percentage damage ECHCG
[32] = pre-emergence, 1,000 g/ha, evaluated after 13 days (100=total damage; 0=no damage), read-out: Percentage damage SETFA
[33] = pre-emergence, 1,000 g/ha, evaluated after 13 days (100=total damage; 0=no damage), read-out: Percentage damage AMARE
[34] = pre-emergence, 1,000 g/ha, evaluated after 13 days (100=total damage; 0=no damage), read-out: Percentage damage SOLNI
[35] = pre-emergence, 1,000 g/ha, evaluated after 13 days (100=total damage; 0=no damage), read-out: Percentage damage IPOHE
[36] = pre-emergence, 1,000 g/ha, evaluated after 13 days (100=total damage; 0=no damage), read-out: Percentage damage ALOMY

SMILES	pest or weed control at 1000 g/ha [1, 25]	pest or weed control at 1000 g/ha (Setaria faberi (SETFA) [2]; [26])	pest or weed control at 1000 g/ha [3, 27]	pest or weed control at 1000 g/ha (Solanum nigrum (SOLNI) [4]; [28])	pest or weed control at 1000 g/ha [5, 29]	pest or weed control at 1000 g/ha [6, 30]	pest or weed control at 1000 g/ha [7, 31]	pest or weed control at 1000 g/ha (Setaria faberi (SETFA) [8]; [32])	pest or weed control at 1000 g/ha [9, 33]	pest or weed control at 1000 g/ha (Solanum nigrum (SOLNI) [10]; [34])	pest or weed control at 1000 g/ha [11, 35]	pest or weed control at 1000 g/ha [12, 36]	other results
COC(=O)c1nc(C2CC2)nc(N(CCC#N)Cc2ccccc2)c1Cl [Compound 161-60, 5-Chloro-4-[N-(2-cyanoethyl)-N-phenylmethyl-amino]-2-cyclopropyl-6-methoxycarbonyl-pyrimidine]													pest or weed control at 1000 g/ha [1, 13]: 50%; pest or weed control at 1000 g/ha (Setaria faberi (SETFA) [2]; [14]): 50%; pest or weed control at 1000 g/ha [3, 15]: 90%; pest or weed control at 1000 g/ha (Solanum nigrum (SOLNI) [4]; [16]): 80%; pest or weed control at 1000 g/ha [5, 17]: 70%; pest or weed control at 1000 g/ha [6, 18]: 20%; pest or weed control at 1000 g/ha [7, 19]: 0%; pest or weed control at 1000 g/ha (Setaria faberi (SETFA) [8]; [20]): 0%; pest or weed control at 1000 g/ha [9, 21]: 0%; pest or weed control at 1000 g/ha (Solanum nigrum (SOLNI) [10]; [22]): 0%; pest or weed control at 1000 g/ha [11, 23]: 0%; pest or weed control at 1000 g/ha [12, 24]: 0%
COC(=O)c1nc(C2CC2)nc(NC2(/C=C/c3ccccc3Cl)CC2)c1Cl [Compound 4-24, 5-Chloro-4-{1-[2-(2-chlorophenyl)-ethenyl]-cyclopropylamino}-2-cyclopropyl-6-methoxycarbonyl-pyrimidine]	30%	60%	100%	80%	100%	10%	0%	0%	100%	90%	40%	10%	
CCOC(=O)[C@H](CSc1ccccc1)Nc1nc(C2CC2)nc(C(=O)OC)c1Cl [4-292 (R), 5-Chloro-2-cyclopropyl-4-[(1R)-1-ethoxycarbonyl-2-phenylthio-ethylamino]-6-methoxycarbonyl-pyrimidine]	30%	50%	100%	70%	60%	20%	20%	10%	100%	80%	100%	20%	
COC(=O)c1nc(C2CC2)nc(N[C@@H](Cc2ccc(OC(C)(C)C)cc2)C(=O)OC)c1Cl [4-288 (S), 4-[(1S)-2-(4-^tButoxyphenyl)-1-methoxycarbonyl-ethylamino]-5-chloro-2-cyclopropyl-6-methoxycarbonyl-pyrimidine]	0%	10%	80%	80%	50%	10%	0%	0%	80%	40%	60%	0%	
COC(=O)c1nc(C2CC2)nc(Nc2ccc(Cl)c(Cl)c2)c1Cl [Compound 4-42, 5-Chloro-2-cyclopropyl-4-(3,4-dichlorophenyl-amino)-6-methoxycarbonyl-pyrimidine]	10%	0%	50%	50%	60%	10%	20%	10%	30%	0%	0%	10%	
COC(=O)c1nc(C2CC2)nc(NC(C)c2ccc(Br)cc2)c1Cl (stereo not drawn) [Compound 4-177, 4-[1-(4-Bromophenyl)ethyl-amino]-5-chloro-2-cyclopropyl-6-methoxycarbonyl-pyrimidine]	50%	40%	90%	90%	100%	20%	0%	0%	20%	0%	20%	0%	
CCC(C)N(Cc1ccccc1)c1nc(C2CC2)nc(C(=O)OC)c1Cl (stereo not drawn) [Compound 148-60, 4-(N-But-2-yl-N-phenylmethyl-amino)-5-chloro-2-cyclopropyl-6-methoxycarbonyl-pyrimidine]													pest or weed control at 1000 g/ha [1, 13]: 0%; pest or weed control at 1000 g/ha (Setaria faberi (SETFA) [2]; [14]): 40%; pest or weed control at 1000 g/ha [3, 15]: 100%; pest or weed control at 1000 g/ha (Solanum nigrum (SOLNI) [4]; [16]): 80%; pest or weed control at 1000 g/ha [5, 17]: 90%; pest or weed control at 1000 g/ha [6, 18]: 10%; pest or weed control at 1000 g/ha [7, 19]: 0%; pest or weed control at 1000 g/ha (Setaria faberi (SETFA) [8]; [20]): 0%; pest or weed control at 1000 g/ha [9, 21]: 80%; pest or weed control at 1000 g/ha (Solanum nigrum (SOLNI) [10]; [22]): 80%; pest or weed control at 1000 g/ha [11, 23]: 30%; pest or weed control at 1000 g/ha [12, 24]: 0%
COC(=O)c1nc(C2CC2)nc(NC(C)c2ccc(F)cc2)c1Cl (stereo not drawn) [Compound 4-175, 5-Chloro-2-cyclopropyl-4-[1-(4-fluorophenyl)ethyl-amino]-6-methoxy-carbonylpyrimidine]	60%	90%	100%	100%	100%	20%	10%	0%	50%	10%	70%	10%	
